The values below come from ChEMBL document CHEMBL3124871, “Synthesis and pharmacological characterization of 1-benzyl-4-aminoindole-based thyroid hormone receptor β agonists” (Bioorg Med Chem, 2014).

The test system of data set [1] is Rattus norvegicus. As to the kind of experiment: Toxicity in cholesterol-fed Sprague-Dawley rat assessed as TSH level at 50 ug/kg/day, po qd for 1 week measured 3 to 6 hrs post last dose (reference value: 62 +/- 7 ng/dl). It is filed as organism-based. To be noted: in vivo, 0.05 mg/kg.
For data set [2], the system named is Rattus norvegicus. As to the kind of experiment: Toxicity in cholesterol-fed Sprague-Dawley rat assessed as total T4 level at 50 ug/kg/day, po qd for 1 week measured 3 to 6 hrs post last dose (reference value: 3.8 +/- 0.9 ug/dl). Format: organism-based. Particulars: in vivo, 0.05 mg/kg.
Data set [3] relates to Rattus norvegicus. As to the kind of experiment: Toxicity in cholesterol-fed Sprague-Dawley rat assessed as TSH level at 50 ug/kg/day, po qd for 1 week measured 3 to 6 hrs post last dose (reference value: 3.0 +/- 1.0 uIU/ml). It is filed as organism-based. Particulars: in vivo, 0.05 mg/kg.
The test system of data set [4] is Rattus norvegicus. As to the kind of experiment: Toxicity in cholesterol-fed Sprague-Dawley rat assessed as heart weight at 50 ug/kg/day, po qd for 1 week measured 3 to 6 hrs post last dose (reference value: 1.14 +/- 0.12 g). It is filed as organism-based. Particulars: in vivo, 0.05 mg/kg.
In data set [5] the test system is Rattus norvegicus. As to the kind of experiment: Toxicity in cholesterol-fed Sprague-Dawley rat assessed as heart rate at 50 ug/kg/day, po qd for 1 week measured 3 to 6 hrs post last dose (reference value: 383.0 +/- 26.7 bpm). Format: organism-based. Particulars: in vivo, 0.05 mg/kg.
The test system of data set [6] is Rattus norvegicus. As to the kind of experiment: Reduction in plasma triglyceride level in cholesterol-fed Sprague-Dawley rat at 50 ug/kg/day, po qd for 1 week measured 3 to 6 hrs post last dose (reference value: 62 +/- 25 mg/dl). It is filed as functional.
Data set [7] deals with Rattus norvegicus. As to the kind of experiment: Reduction in plasma HDL-cholesterol in cholesterol-fed Sprague-Dawley rat at 50 ug/kg/day, po qd for 1 week measured 3 to 6 hrs post last dose (reference value: 22 +/- 6 mg/dl). Format: functional.
Data set [8] deals with Rattus norvegicus. The data set is described as follows: Reduction in plasma free cholesterol in cholesterol-fed Sprague-Dawley rat at 50 ug/kg/day, po qd for 1 week measured 3 to 6 hrs post last dose (reference value: 36 +/- 9 mg/dl). Format: functional.
Data set [9] has as its system Rattus norvegicus. As to the kind of experiment: Reduction in plasma LDL-cholesterol in cholesterol-fed Sprague-Dawley rat at 50 ug/kg/day, po qd for 1 week measured 3 to 6 hrs post last dose (reference value: 51 +/- 15 mg/dl). Format: functional.
For data set [10], the system named is Rattus norvegicus. The data set is described as follows: Reduction in plasma total cholesterol in cholesterol-fed Sprague-Dawley rat at 50 ug/kg/day, po qd for 1 week measured 3 to 6 hrs post last dose (reference value: 190 +/- 49 mg/dl). Format: functional.

Turning to `N[C@@H](Cc1cc(I)c(Oc2ccc(O)c(I)c2)c(I)c1)C(=O)O` [LIOTHYRONINE], the Activity in the data set with Rattus norvegicus [1] is 31 ng/dL; in the data set with Rattus norvegicus [2], 0.9 µg/dL; in the data set with Rattus norvegicus [3], 0.1 uIU/ml; in the data set on Rattus norvegicus [4] it was 1.25 g; with Rattus norvegicus [5] it was 430 bpm; in the data set on Rattus norvegicus [6] it was 61 mg/dL. Also, the Activity with Rattus norvegicus [7] was found to be 22 mg/dL; in the data set with Rattus norvegicus [8], 22 mg/dL; in the data set with Rattus norvegicus [9], 28 mg/dL; with Rattus norvegicus [10] it was 123 mg/dL.
